Key:
[1] = target: T1, Tyrosine-protein kinase ZAP-70 (Homo sapiens) (UniProt P43403); test: Selectivity interaction (KinomeScan (DiscoverX)) EUB0000229b ZAP70; details: at 10 µM
T1 sequence (whole entry): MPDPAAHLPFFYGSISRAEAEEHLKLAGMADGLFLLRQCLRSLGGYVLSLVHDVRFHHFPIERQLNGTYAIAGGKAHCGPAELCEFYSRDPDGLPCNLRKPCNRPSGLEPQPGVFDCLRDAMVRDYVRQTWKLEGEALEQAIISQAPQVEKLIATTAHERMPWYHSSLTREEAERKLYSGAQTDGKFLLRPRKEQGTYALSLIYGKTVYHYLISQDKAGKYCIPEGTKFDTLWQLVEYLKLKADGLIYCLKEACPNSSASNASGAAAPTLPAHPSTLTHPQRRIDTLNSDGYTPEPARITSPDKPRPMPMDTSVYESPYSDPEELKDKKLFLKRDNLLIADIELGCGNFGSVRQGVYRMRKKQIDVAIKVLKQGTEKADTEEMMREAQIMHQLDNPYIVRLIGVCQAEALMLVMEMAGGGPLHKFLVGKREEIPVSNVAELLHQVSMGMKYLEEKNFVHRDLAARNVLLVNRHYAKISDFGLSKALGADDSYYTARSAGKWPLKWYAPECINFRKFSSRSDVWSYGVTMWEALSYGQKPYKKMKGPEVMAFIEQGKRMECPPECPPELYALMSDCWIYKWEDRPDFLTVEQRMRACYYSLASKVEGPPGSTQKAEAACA

[2] = test system: Epidermal growth factor receptor (Homo sapiens), P00533 [G719C]; details: at 10 µM
[3] = target: T2, Serine/threonine-protein kinase MAK (Homo sapiens) (UniProt P20794); test: Selectivity interaction (KinomeScan (DiscoverX)) EUB0000695a MAK; details: at 100 nM
T2 sequence (whole entry): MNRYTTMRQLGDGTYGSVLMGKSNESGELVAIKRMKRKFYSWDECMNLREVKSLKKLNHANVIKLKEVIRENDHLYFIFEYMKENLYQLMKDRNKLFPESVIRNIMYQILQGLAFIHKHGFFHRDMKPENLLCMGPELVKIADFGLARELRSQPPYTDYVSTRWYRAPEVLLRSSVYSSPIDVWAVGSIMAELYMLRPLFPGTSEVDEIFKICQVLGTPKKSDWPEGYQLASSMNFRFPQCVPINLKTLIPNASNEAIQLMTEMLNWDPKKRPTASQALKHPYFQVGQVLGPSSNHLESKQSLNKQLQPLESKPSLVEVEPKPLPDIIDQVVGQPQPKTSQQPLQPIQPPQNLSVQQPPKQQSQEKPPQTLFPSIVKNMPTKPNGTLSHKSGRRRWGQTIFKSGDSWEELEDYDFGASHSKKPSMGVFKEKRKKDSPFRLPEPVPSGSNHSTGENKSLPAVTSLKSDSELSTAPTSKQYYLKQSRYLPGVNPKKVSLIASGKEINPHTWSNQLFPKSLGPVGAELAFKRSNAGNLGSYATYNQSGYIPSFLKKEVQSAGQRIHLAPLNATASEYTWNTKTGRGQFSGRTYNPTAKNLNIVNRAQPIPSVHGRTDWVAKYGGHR

[4] = target: Serine/threonine-protein kinase PLK3 (Homo sapiens, UniProt Q9H4B4); test: Selectivity interaction (ProQinase) EUB0000171b PLK3
[5] = target: CDK12/Cyclin K (Homo sapiens) (UniProt O75909+Q9NYV4); test: Selectivity interaction (ProQinase) EUB0000171b CDK12; assay type: protein-complex assay; details: at 1 µM
[6] = target: Calcium/calmodulin-dependent protein kinase type 1D (Homo sapiens) (UniProt Q8IU85); test: Selectivity interaction (KinomeScan (DiscoverX)) EUB0001619a CAMK1D; details: at 1 µM
[7] = target: Fibroblast growth factor receptor 1 (Homo sapiens, UniProt P11362); test: Selectivity interaction (SelectScreen profiling (Invitrogen)) EUB0000607a FGFR1; details: at 2 µM
[8] = target: T3, Serine/threonine-protein kinase Nek9 (Homo sapiens) (UniProt Q8TD19); test: Selectivity interaction (ActivX KiNativ screen (kinase selectivity in THP-1 cell lysates)) EUB0000639a NEK9; assay type: subcellular; details: lysate, at 1 µM
T3 sequence (whole entry): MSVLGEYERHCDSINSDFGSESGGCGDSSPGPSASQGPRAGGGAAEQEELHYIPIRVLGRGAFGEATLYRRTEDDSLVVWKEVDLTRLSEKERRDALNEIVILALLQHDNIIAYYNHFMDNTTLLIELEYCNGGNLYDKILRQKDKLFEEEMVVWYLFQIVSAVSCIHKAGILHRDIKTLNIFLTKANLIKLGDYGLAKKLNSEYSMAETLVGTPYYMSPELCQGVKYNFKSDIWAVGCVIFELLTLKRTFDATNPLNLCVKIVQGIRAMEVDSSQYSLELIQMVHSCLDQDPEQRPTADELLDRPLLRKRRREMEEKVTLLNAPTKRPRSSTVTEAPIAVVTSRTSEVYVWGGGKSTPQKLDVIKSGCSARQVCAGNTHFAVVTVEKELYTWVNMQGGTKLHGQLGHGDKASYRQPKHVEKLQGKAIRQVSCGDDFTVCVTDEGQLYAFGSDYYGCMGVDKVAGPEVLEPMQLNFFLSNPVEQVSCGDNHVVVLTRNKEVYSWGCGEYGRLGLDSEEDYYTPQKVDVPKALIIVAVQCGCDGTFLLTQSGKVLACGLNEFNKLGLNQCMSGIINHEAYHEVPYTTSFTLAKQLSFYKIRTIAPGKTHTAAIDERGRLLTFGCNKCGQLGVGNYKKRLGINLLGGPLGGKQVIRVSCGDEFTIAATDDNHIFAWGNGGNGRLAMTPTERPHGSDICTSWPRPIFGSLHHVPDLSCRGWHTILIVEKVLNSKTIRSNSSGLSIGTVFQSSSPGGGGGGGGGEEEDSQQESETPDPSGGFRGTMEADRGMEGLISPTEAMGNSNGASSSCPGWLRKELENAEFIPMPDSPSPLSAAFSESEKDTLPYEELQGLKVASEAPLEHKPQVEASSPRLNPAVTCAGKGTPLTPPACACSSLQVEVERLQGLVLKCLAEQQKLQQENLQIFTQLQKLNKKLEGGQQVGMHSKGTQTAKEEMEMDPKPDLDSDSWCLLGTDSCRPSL

[9] = target: Atypical kinase COQ8A, mitochondrial (Homo sapiens, UniProt Q8NI60); test: Selectivity interaction (KinomeScan (DiscoverX)) EUB0000655a ADCK3; details: at 10 µM
[10] = target: Protein kinase C theta type (Homo sapiens, UniProt Q04759); test: Selectivity interaction (KinomeScan (DiscoverX)) EUB0000092b PRKCQ; details: at 10 µM
Chain of Protein kinase C theta type (Q04759 whole entry, looked up): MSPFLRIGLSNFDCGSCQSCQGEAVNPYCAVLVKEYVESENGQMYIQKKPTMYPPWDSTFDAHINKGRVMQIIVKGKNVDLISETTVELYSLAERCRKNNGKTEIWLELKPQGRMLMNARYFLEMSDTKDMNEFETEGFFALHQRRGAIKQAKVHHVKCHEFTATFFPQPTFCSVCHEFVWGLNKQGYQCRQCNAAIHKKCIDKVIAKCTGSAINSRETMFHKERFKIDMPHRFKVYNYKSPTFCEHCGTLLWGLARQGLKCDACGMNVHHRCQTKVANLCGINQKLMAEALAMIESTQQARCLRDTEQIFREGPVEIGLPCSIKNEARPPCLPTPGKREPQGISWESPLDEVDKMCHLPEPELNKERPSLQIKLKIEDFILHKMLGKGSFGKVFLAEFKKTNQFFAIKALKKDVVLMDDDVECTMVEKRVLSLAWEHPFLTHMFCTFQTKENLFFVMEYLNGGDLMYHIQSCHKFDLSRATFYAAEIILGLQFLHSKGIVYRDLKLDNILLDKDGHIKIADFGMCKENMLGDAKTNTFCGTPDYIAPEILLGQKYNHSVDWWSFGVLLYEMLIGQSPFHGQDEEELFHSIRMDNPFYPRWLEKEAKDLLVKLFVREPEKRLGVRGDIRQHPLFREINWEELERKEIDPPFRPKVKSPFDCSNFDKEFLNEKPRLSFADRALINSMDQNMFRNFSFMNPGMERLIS

Chain of Serine/threonine-protein kinase PLK3 (Q9H4B4 whole entry, looked up): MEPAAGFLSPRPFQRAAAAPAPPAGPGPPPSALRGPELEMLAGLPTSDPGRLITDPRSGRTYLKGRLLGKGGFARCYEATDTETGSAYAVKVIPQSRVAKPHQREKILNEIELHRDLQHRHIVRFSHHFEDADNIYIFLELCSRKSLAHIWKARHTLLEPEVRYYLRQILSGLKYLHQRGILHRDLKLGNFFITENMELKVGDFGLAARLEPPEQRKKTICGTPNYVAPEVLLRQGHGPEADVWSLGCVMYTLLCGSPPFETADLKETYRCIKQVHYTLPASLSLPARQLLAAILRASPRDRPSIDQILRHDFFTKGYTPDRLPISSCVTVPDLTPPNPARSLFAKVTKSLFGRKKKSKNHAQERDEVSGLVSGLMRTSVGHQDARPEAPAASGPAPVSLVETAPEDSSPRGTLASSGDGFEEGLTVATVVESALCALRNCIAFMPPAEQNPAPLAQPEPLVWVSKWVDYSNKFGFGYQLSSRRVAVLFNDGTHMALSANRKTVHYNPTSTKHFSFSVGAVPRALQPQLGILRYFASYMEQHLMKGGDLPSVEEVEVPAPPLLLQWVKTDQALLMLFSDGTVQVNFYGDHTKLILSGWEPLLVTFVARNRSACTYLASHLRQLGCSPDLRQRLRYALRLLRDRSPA
Chain of Calcium/calmodulin-dependent protein kinase type 1D (Homo sapiens) (Q8IU85 whole entry, looked up): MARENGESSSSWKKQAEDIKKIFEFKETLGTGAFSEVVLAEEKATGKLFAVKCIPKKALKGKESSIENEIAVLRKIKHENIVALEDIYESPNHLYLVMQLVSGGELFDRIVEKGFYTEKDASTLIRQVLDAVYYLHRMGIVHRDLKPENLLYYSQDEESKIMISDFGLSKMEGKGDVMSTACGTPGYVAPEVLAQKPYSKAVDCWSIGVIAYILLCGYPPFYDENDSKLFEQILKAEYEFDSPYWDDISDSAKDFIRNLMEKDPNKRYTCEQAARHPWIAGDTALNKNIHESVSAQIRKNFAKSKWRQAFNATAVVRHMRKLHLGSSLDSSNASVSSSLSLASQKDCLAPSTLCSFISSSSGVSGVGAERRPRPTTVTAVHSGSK
Chain of Epidermal growth factor receptor (Homo sapiens), P00533 [G719C] (P00533 whole entry G719C): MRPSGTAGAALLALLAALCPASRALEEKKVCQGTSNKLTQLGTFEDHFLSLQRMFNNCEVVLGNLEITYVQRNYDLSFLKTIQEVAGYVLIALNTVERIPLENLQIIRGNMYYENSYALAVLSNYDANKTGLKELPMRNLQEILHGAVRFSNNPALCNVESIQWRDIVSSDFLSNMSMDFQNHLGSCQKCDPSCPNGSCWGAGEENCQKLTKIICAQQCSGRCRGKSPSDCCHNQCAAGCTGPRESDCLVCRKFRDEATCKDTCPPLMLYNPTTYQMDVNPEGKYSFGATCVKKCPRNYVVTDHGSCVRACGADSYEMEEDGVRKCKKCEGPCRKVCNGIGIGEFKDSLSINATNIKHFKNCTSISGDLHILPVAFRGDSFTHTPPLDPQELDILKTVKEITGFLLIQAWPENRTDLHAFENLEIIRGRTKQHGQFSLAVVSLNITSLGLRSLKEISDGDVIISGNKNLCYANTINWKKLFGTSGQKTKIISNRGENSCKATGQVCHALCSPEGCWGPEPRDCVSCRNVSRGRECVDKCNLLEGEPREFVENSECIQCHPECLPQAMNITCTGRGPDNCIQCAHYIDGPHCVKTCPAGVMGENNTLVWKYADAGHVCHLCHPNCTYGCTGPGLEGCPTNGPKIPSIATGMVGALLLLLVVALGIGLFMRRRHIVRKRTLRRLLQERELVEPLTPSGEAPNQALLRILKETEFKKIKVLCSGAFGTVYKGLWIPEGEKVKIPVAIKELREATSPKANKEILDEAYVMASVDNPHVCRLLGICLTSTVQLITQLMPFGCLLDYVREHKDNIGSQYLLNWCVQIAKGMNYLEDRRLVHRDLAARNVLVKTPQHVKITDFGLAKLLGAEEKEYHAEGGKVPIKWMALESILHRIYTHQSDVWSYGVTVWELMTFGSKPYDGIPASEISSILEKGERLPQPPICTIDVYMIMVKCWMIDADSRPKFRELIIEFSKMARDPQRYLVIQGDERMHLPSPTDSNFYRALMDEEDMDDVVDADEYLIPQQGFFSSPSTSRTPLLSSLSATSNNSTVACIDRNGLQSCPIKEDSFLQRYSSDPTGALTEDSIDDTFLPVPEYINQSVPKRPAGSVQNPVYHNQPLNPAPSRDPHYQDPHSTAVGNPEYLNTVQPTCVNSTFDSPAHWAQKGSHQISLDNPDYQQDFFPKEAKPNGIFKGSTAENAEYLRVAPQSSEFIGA
Chain of Fibroblast growth factor receptor 1 (P11362 22-822 limits assumed): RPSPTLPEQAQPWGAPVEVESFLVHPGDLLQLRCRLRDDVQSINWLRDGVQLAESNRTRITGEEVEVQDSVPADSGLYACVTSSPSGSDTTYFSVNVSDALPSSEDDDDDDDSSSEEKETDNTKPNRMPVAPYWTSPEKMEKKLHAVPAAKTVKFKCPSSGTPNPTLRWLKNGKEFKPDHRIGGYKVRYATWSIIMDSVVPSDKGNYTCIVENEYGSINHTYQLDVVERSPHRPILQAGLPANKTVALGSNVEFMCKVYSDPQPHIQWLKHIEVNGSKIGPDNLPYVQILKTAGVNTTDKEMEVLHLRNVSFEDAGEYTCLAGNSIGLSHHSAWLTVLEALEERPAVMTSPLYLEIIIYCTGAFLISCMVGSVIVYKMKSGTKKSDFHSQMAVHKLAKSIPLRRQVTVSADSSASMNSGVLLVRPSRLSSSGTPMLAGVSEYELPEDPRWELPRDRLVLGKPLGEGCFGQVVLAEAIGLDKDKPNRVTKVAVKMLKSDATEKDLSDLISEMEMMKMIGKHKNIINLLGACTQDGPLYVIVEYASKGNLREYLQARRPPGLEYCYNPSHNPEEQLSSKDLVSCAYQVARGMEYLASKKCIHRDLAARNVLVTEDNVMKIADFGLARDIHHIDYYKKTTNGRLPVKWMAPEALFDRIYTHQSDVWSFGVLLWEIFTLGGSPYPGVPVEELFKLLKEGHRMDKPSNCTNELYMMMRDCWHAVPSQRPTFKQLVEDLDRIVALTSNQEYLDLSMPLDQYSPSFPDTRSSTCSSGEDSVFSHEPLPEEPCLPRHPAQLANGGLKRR
Chain of Atypical kinase COQ8A, mitochondrial (Q8NI60 163-647 limits assumed): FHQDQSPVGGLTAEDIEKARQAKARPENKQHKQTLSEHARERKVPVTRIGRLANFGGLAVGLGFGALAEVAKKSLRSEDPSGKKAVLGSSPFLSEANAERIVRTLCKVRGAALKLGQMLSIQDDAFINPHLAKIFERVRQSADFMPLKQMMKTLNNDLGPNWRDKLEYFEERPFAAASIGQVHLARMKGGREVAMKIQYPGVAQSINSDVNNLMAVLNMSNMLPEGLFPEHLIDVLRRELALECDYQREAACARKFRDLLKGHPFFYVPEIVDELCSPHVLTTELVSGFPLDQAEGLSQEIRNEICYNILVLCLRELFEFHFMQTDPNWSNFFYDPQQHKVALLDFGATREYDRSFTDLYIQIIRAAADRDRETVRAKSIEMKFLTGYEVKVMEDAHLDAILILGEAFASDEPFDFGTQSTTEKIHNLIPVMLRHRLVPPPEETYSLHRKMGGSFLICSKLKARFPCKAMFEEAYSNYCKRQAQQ

COc1cc(N(C)c2ccnc3ccc(C(F)(F)F)cc23)cc(OC)c1OC
% binding [1]: 100%

COCC(=O)NC/C=C/c1ccc2ncnc(Nc3ccc(Oc4ccc(C)nc4)c(C)c3)c2c1 [CP-724714]
% of control [2]: 0%

Cc1cc(F)c(C(=O)Nc2cccc(-c3nncn3C(C)C)n2)cc1-n1cnc(C2CC2)c1
% of control [3]: 100%

C=CC(=O)Nc1cccc(C(=O)Nc2ccc(Nc3cc(-c4[nH]c(SC)nc4C)ccn3)cc2)c1
% of control ([4]; at 1 µM): 103% | % of control ([4]; at 5 µM): 75% | % of control [5]: 82%

N#Cc1cccc(-c2c[nH]c3ncnc(N4CCOCC4)c23)c1
% of control [6]: 88%

CNC(=O)Nc1ccc(-c2nc(N3CC4CCC(C3)O4)c3cnn(C4CCC5(CC4)OCCO5)c3n2)cc1
% of inhibition [7]: 4%

CC[C@@H]1[C@H](F)C(=O)N[C@@H]1COc1nccc2cc(C(N)=O)c(OC)cc12 [ZIMLOVISERTIB]
% of inhibition [8]: -1.1%

CN(C)CCOc1ccc(-c2nc(-c3ccncc3)c(-c3ccc4c(c3)CC/C4=N\O)[nH]2)cc1
% of control [9]: 7%

CCC(=O)N1CCN(c2ccc(-n3c(=O)ccc4cnc5ccc(-c6cnc7ccccc7c6)cc5c43)cc2C(F)(F)F)CC1
% of control [10]: 91%
